Assay results published in patent US20180353462A1, “[…] AGENTS […] FLAVONOID DERIVATIVES TARGETING KINASES, SIRTUINS AND ONCOGENIC AGENTS FOR THE TREATMENT OF CANCERS” (priority 2015, published 2018).

Legend:
DYRK1/DYRK1A = target: T1, DYRK1/DYRK1A (Homo sapiens, UniProt Q13627); assay: Kinase competition binding assay, DYRK1/DYRK1A; conditions: Table 1 kinase panel
T1 construct: made in house
Protocol: (§1) Cannabis flavonoids and their analogs were subjected to kinase inhibition assay. The compounds were first screened at a single concentration of 10 μM in the primary assay. […]. To determine the kd or IC50 values, competition binding assays were established, authenticated and executed as described previously. Fabian et al., “A Small Molecule-Kinase Interaction Map For Clinical Kinase Inhibitors.”, Nat Biotechnol, 23(3):329-36, Epub (2005). See also, Karaman et al., “A Quantitative Analysis Of Kinase Inhibitor Selectivity”, Nat. Biotechnol. […] For most assays, kinases were fused to T7 phage strains (Fabian, supra) and for the other assays, kinases were produced in HEK-293 cells after which they were tagged with DNA for quantitative PCR detection. In general, full-length constructs were used for small, single domain kinases, and catalytic domain constructs for large multi-domain kinases. The binding assays utilized streptavidin-coated magnetic beads treated with biotinylated small molecule ligands for 30 minutes at room temperature which generated affinity resins for the kinase assays. The liganded beads were blocked with excess biotin and washed with blocking buffer (SeaBlock (Pierce), 1% BSA, 0.05% Tween 20, 1 mM DTT) to remove unbound ligand and to reduce non-specific phage binding. […] Test compounds were prepared as 40× stocks in 100% DMSO and diluted directly into the assay (Final DMSO concentration=2.5%). All reactions were performed in polypropylene 384-well plates in a final volume of 0.04 ml. […] The beads were then re-suspended in elution buffer (1×PBS, 0.05% Tween 20, 0.5 μM non-biotinylated affinity ligand) and incubated at room temperature with shaking for 30 minutes. The kinase concentration in the eluates was measured by quantitative PCR. An illustration of the kinase interaction process is presented below. Kd/IC50 values were determined using a standard dose response curve using the hill equation. Curves were fitted using a non-linear least square fit with the Levenberg-Marquardt algorithm.
(§2) The compound(s) were screened at 10 μM and results for primary screen binding interactions are reported as ‘% Ctrl’, where lower numbers indicate stronger hits in the matrix.

KIT(V559D) = target: T2, KIT(V559D) (Homo sapiens, UniProt P10721, V559D); assay: Kinase competition binding assay, KIT(V559D); conditions: Table 1 kinase panel
T2 construct: made in house
Protocol: as §1, §2

MEK5 = target: T3, MEK5 (Homo sapiens, UniProt Q13163); assay: Kinase competition binding assay, MEK5; conditions: Table 1 kinase panel
T3 construct: made in house
T3 sequence (Q13163 1-448): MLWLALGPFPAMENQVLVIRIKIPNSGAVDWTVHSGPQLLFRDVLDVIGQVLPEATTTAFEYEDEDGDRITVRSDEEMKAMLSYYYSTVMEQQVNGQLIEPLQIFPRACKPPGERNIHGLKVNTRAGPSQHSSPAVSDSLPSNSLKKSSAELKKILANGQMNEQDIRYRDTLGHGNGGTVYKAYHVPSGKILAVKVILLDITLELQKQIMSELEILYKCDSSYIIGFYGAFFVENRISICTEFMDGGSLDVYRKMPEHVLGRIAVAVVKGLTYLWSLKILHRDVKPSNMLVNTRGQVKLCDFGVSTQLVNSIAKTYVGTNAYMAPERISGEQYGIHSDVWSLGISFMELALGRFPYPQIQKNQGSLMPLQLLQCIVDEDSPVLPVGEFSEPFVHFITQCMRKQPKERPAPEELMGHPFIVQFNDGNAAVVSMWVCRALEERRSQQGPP
Protocol: as §1, §2

PIP5K1A = target: T4, PIP5K1A (Homo sapiens, UniProt Q99755); assay: Kinase competition binding assay, PIP5K1A; conditions: Table 1 kinase panel
T4 construct: T7 phage fusion (most assays) or DNA tag for qPCR (HEK-293-made kinases); made in house
Protocol: as §1, §2

SIRT-3 = target: T5, SIRT-3 (Homo sapiens, UniProt Q9NTG7); assay: Inhibition of sirtuins, SIRT-3; format: biochemical; conditions: Table 3 SIRT
T5 sequence (Q9NTG7 1-399): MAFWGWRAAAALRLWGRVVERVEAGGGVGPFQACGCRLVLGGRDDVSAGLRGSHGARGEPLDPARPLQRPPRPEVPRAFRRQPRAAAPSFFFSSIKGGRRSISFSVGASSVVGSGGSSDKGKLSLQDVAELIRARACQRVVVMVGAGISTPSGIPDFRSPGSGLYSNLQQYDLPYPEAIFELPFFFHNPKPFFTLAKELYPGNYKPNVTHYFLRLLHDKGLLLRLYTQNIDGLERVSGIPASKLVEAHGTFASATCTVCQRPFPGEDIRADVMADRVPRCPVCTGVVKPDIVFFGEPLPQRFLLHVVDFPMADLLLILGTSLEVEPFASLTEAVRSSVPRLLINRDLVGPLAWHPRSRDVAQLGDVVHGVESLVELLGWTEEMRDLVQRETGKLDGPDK
Excerpt: Inhibition of Sirtuins, Matrix Metalloproteinase, Bromodomains was Also Confirmed Using Standard Protocols and the Results are Present in Table 2.

U87 (Glioma) = assay: WST-1 anticancer cell proliferation assay, U87; format: cell-based; conditions: 72 hours
Protocol: Bioactivity of the above-described compounds has been verified by an anticancer cell proliferation assay using the WST-1 (4-[3-(4-iodophenyl)-2-(4-nitrophenyl)-2H-5-tetrazolio]-1, 3-benzene disulfonate) colorimetric assay by Roche Life Sciences®. Anticancer activity was tested against several standard cancer cell lines including brain, breast, Kaposi sarcoma, leukemia, lung, melanoma, tenosynovial giant cell tumor, ovarian, pancreatic, colon and prostate cancer. Cells were trypsinized and plated into 96 well plates in 50 μl of media and incubated overnight. The next day approximately 18 hours after plating, 50 μl of media containing the required flavonoid-based pharmaceutical composition was added per well. Cells were plated at a density so that 72 hours post drug addition, the cells will be in log phase (500)-2000 cells/well). The compounds and extracts were solubilized in Dimethyl sulfoxide (DMSO). The cells are allowed to proliferate for 72 hours 37° C. in humidified atmosphere of 5% CO2. The experiment is terminated using WST-1 (Roche®) 10 μl per well and absorbance is read at 450 nm %690 nm. The effect of drugs on growth is assessed as percent of cell viability. The IC50 values were determined from the extract dose versus control growth curves using Graphpad Prism® software. All experiments were carried out in duplicate and the mean results determined.

PDGFRa = target: T6, PDGFRa (Homo sapiens, UniProt P16234); assay: Kinase competition binding assay, PDGFRa; conditions: Table 1 kinase panel
T6 construct: catalytic domain constructs for large multi-domain kinases; T7 phage fusion (most assays) or DNA tag for qPCR (HEK-293-made kinases); made in house
Protocol: Cannabis flavonoids and their analogs were subjected to kinase inhibition assay. The compounds were first screened at a single concentration of 10 μM in the primary assay. […]. To determine the kd or IC50 values, competition binding assays were established, authenticated and executed as described previously. Fabian et al., “A Small Molecule-Kinase Interaction Map For Clinical Kinase Inhibitors.”, Nat Biotechnol, 23(3):329-36, Epub (2005). See also, Karaman et al., “A Quantitative Analysis Of Kinase Inhibitor Selectivity”, Nat. Biotechnol. […] For most assays, kinases were fused to T7 phage strains (Fabian, supra) and for the other assays, kinases were produced in HEK-293 cells after which they were tagged with DNA for quantitative PCR detection. In general, full-length constructs were used for small, single domain kinases, and catalytic domain constructs for large multi-domain kinases. The binding assays utilized streptavidin-coated magnetic beads treated with biotinylated small molecule ligands for 30 minutes at room temperature which generated affinity resins for the kinase assays. The liganded beads were blocked with excess biotin and washed with blocking buffer (SeaBlock (Pierce), 1% BSA, 0.05% Tween 20, 1 mM DTT) to remove unbound ligand and to reduce non-specific phage binding. […] Test compounds were prepared as 40× stocks in 100% DMSO and diluted directly into the assay (Final DMSO concentration=2.5%). All reactions were performed in polypropylene 384-well plates in a final volume of 0.04 ml. […] The beads were then re-suspended in elution buffer (1×PBS, 0.05% Tween 20, 0.5 μM non-biotinylated affinity ligand) and incubated at room temperature with shaking for 30 minutes. The kinase concentration in the eluates was measured by quantitative PCR. An illustration of the kinase interaction process is presented below. Kd/IC50 values were determined using a standard dose response curve using the hill equation. Curves were fitted using a non-linear least square fit with the Levenberg-Marquardt algorithm. […]

T2 sequence (P10721 26-976 V559D): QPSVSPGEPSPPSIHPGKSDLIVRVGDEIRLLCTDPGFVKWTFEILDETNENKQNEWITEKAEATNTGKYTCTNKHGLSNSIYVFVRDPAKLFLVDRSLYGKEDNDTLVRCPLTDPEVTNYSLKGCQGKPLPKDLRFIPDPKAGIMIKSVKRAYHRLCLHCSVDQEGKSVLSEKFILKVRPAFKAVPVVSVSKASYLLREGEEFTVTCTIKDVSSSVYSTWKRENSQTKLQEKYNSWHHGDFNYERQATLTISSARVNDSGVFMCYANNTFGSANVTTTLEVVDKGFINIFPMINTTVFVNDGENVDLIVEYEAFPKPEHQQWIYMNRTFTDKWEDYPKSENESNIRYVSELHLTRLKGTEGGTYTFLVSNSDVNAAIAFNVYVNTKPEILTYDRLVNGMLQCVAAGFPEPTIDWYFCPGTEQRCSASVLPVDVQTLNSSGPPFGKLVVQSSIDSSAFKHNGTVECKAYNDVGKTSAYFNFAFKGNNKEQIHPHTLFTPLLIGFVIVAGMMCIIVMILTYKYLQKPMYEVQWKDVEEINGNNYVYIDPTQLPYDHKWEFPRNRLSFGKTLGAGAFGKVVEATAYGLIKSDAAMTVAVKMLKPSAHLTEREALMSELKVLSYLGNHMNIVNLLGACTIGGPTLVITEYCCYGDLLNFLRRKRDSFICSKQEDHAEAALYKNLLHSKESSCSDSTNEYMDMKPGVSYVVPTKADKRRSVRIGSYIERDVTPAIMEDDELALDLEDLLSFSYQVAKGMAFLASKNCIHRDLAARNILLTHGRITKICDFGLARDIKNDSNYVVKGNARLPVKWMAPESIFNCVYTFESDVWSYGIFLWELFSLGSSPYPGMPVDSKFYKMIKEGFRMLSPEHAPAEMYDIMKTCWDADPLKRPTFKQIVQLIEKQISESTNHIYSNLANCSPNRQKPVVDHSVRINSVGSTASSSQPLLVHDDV
T6 sequence (P16234 593-954 limits assumed): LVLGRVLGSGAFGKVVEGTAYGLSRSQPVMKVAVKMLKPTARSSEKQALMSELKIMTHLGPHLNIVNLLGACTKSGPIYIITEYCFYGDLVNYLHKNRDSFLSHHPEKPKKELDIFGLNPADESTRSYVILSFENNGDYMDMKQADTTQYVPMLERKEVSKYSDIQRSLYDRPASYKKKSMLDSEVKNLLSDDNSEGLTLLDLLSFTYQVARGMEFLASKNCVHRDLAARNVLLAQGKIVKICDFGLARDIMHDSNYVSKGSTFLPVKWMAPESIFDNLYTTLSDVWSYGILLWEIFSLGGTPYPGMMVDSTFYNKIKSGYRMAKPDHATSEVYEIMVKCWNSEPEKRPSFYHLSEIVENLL
T4 sequence (Q99755 whole entry, the tested form may be a part): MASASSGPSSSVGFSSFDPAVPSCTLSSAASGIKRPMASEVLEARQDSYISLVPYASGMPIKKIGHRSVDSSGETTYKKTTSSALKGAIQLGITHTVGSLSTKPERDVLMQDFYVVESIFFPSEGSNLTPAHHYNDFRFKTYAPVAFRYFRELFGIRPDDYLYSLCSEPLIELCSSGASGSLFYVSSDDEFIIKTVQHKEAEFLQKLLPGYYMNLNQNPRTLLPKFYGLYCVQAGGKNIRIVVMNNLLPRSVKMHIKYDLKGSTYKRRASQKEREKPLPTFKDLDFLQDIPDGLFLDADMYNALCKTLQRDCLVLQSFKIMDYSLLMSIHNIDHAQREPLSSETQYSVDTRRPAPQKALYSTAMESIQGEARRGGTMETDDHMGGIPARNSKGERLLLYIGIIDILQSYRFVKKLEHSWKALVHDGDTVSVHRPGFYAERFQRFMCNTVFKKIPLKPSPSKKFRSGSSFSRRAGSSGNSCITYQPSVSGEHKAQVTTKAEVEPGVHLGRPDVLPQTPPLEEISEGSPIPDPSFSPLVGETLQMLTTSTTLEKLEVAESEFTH

Row | Compound | IC50 (DYRK1/DYRK1A) | IC50 (KIT(V559D)) | IC50 (MEK5) | IC50 (PIP5K1A) | IC50 (SIRT-3) | IC50 (U87 (Glioma)) | IC50 (PDGFRa)
1 | COc1cc(-c2cc(=O)c3c(O)c(C/C=C(\C)CCC=C(C)C)c(O)cc3o2)ccc1O [FBL-03A] | > 20000 nM | 200 nM | 140 nM | > 20000 nM | 94.9 µM | 34 µM | –
2 | COc1cc(-c2cc(=O)c3c(O)cc(O)c(CC=C(C)C)c3o2)ccc1O [FBL-03G] | 36 nM | < 1000 nM | > 1000 nM | > 20000 nM | 66.4 µM | 5.46 µM | 5920 nM
3 | COc1ccc(-c2cc(=O)c3c(O)c(C/C=C(\C)CCC=C(C)C)c(O)cc3o2)cc1OC [FBL-03D] | > 30000 nM | > 30000 nM | > 30000 nM | > 30000 nM | – | – | > 30000 nM
4 | COc1cc(-c2cc(=O)c3c(O)c(CC=C(C)C)c(O)cc3o2)ccc1O [FBL-03B] | < 1000 nM | < 1000 nM | > 1000 nM | > 10000 nM | 77 µM | 6.2 µM | 982 nM
5 | COc1cc(-c2cc(=O)c3c(O)cc(O)c(C/C=C(\C)CCC=C(C)C)c3o2)ccc1O [FBL-03C] | 620 nM | > 1000 nM | 84 nM | 360 nM | 65.4 µM | 12.5 µM | –
